Data from paper PMC11478076, “Synthetic Routes to 2-aryl-1H-pyrrolo[2,3-b]pyridin-4-amines: Cross-Coupling and Challenges in SEM-Deprotection” (Molecules, 2024).
Values joined by “and” are separate entries in the source; they are usually repeats but may differ in a detail not shown here. Identical values can stand only once. Like-named read-outs stand apart in the source and are kept apart here. Blank lines part the entries; values can stand above or below the compound they belong to.

Assays:
[1] = molecular target: T1, CSF1R (Homo sapiens, UniProt P07333); assay: CSF1R enzymatic inhibitory assay, Z'-LYTE (Invitrogen/ThermoFisher); assay type: biochemical; details: ATP level equal to KM 10 μM, two titration curves (20 data points)
Description: Figure 2 CSF1R inhibition (IC50 curves) for the 7-azaindole 3c (red squares), pyrrolopyrimidine 1 (blue circles) and thienopyrimidine 2 (green triangles). The solid lines are regression curves generated from 20 data points each. The assay was performed at ThermoFisher (Invitrogen, San Diego, CA, USA) using the Z-lyte technology; ATP level was equal to KM.
(§1) CSF1R enzymatic inhibitory assay
(§2) The compounds were supplied in a 10 mM DMSO solution, and enzymatic CSF1R inhibition potency was determined by Invitrogen (ThermoFisher) using their Z’-LYTE® assay technology.[11] The assay is based on fluorescence resonance energy transfer (FRET). In the primary reaction, the kinase transfers the gamma-phosphate of ATP to a single tyrosine residue in a synthetic FRET-peptide. In the secondary reaction, a site-specific protease recognizes and cleaves non-phosphorylated FRET-peptides. Thus, phosphorylation of FRET-peptides suppresses cleavage by the development reagent. Cleavage disrupts FRET between the donor (i.e. coumarin) and acceptor (i.e., fluorescein) fluorophores on the FRET-peptide, whereas uncleaved, phosphorylated FRET-peptides maintain FRET. […]
(§3) The TR-FRET-based LANCE Ultra assay (Perkin Elmer) was used to determine IC50 values for various CSF1R inhibitors. Kinase activity and inhibition in this assay was measured as […]

[2] = molecular target: T1, CSF1R; assay: CSF1R enzymatic inhibitory assay, LANCE Ultra TR-FRET (Perkin Elmer); assay type: biochemical
Description: as §1, §2, §3
recommended by the manufacturer. […] Subsequently, phosphorylation or inhibition was detected by addition of specific europium (Eu)-labelled anti-phospho-antibodies (2 nM), which upon binding to the phospho-peptide give rise to a FRET signal. The FRET signal was recorded in a time-resolved manner in a Perkin Elmer EnVision reader. […] All assay data was analysed with the Quattro Workflow software package from Quattro Research.

[3] = molecular target: T1, CSF1R; design: method as in Aarhus et al. [19]; details: LANCE Ultra assay; ATP level 25 μM; previously reported data ref Aarhus et al. [19]; cited from earlier work
[4] = molecular target: T1, CSF1R; design: method as in PMID 38141285; details: cited from earlier work

T1 sequence (P07333 20-972): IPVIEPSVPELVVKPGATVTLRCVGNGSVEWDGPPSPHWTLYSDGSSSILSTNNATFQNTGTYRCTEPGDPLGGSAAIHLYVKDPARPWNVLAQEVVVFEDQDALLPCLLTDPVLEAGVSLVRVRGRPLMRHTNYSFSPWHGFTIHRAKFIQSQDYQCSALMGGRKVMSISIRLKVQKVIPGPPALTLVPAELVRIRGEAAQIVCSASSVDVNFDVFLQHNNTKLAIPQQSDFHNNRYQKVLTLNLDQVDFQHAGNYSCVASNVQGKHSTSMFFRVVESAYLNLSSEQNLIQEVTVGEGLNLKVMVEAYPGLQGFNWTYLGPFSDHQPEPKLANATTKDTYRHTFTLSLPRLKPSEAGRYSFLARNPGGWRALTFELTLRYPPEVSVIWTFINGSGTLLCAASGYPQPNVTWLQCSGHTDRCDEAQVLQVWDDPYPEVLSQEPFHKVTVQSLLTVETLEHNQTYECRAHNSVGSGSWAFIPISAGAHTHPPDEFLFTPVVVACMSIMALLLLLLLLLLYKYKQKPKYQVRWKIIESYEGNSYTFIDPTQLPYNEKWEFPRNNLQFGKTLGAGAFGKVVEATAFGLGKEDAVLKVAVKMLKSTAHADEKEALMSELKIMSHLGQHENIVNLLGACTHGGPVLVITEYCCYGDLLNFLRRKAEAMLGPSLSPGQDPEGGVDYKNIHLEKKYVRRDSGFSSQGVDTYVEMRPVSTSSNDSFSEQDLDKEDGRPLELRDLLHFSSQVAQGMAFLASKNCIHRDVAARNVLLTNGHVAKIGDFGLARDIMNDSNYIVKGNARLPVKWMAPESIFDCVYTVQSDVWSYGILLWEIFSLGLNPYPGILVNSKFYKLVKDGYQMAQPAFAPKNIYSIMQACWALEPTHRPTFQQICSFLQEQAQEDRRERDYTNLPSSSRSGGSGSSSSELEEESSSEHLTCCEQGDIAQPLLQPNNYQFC

- melting point: 191 to 193 °C
SMILES: CN(Cc1ccccc1)c1ccnc2[nH]c(-c3ccccc3)cc12 [3a, N-Benzyl-N-methyl-2-phenyl-1H-pyrrolo-[2,3-b]pyridin-4-amine]

- IC50 [1]: 3 nM and 3.1 nM
- fold lower CSF1R activity compared to the corresponding pyrrolopyrimidine (reference inhibitor 1) ([2]; CSF1R assay with higher ATP concentration (25 μM)): 20 fold
- IC50 ([2]; LANCE Ultra assay, ATP level 25 μM): 105 nM
- melting point: 200 to 201 °C
SMILES: CN(Cc1ccccc1)c1ccnc2[nH]c(-c3ccc(CO)cc3)cc12 [3c, (4-(4-(Benzyl(methyl)amino)-1H-pyrrolo[2,3-b]pyridin-2-yl)phenyl)methanol]

- melting point: 287 to 289 °C (dec.)
SMILES: COc1ccc(-c2[nH]c3nccc4c3c2Cc2ccccc2CN4C)cc1 [16b, 1-(4-Methoxyphenyl)-6-methyl-2,6,7,12-tetrahydro-2,3,6-triazabenzo[6,7]cycloocta[1,2,3-cd]indene]

SMILES: CN(Cc1ccccc1)c1ncnc2sc(-c3ccc(CO)cc3)cc12 [compound 2]
- IC50 [3]: 450 nM
- CSF1R inhibitory activity in enzymatic studies (in words) [4]: far less active
